Measurements from patent publication US20060135415A1, “Immunomodulation and effect on cell processes relating to serotonin family receptors and the blood-brain barrier” (priority 2002, published 2006).
Entries after “also recorded” stand apart in the source; their conditions may differ.

Tests used:
RPMI 8226 cells [1] = assay: Annexin V / propidium iodide flow cytometry; assay type: cell-based, human; conditions: RPMI 8226 cells (FIGS. 27, 34)
Method: Early apoptotic cells were detected by co-staining cells previously exposed to each experimental condition. Briefly, cells were incubated during a time course in the presence of various concentrations of each experimental or control apoptosis inducing agent as set forth elsewhere herein. After incubation, the cells were washed with ice-cold PBS, stained with Annexin V-Alexa flour 488 and Propidium Iodide (Molecular Probes, Eugene, Oreg.) and analyzed by dual-color flow cytometry. Annexin V^+ and PI^− cells were considered as early apoptotic cells. The known terminal differentiator of myeloma cells, HMBA (hexamethylene-bis-acetamide), and the topoisomerase inhibitor, camtothecin, were used as positive controls for apoptosis at 5 mM and 2 μM, respectively.
Therefore, the degree of apoptosis in a cell population can be ascertained by assessing the presence of annexin-V positive cells and the absence of propidium iodide (PI) staining cells (necrotic cells). […] The extent of apoptosis was determined by analyzing flow cytometry data and generating FACS plots, which were then gated to include only the population of cells which were PI negative (non-necrotic). The degree of annexin-V positive cells was then measured in this PI negative cell population as a measure of apoptosis (FIG. 34).

human 5HT2C-INI receptor = molecular target: T1, human 5HT2C-INI receptor (Homo sapiens, UniProt P28335); conditions: HEK-293 cells, data from Rauser et al. 2001 (FIG. 38); cited from earlier work
T1 sequence (P28335 33-458): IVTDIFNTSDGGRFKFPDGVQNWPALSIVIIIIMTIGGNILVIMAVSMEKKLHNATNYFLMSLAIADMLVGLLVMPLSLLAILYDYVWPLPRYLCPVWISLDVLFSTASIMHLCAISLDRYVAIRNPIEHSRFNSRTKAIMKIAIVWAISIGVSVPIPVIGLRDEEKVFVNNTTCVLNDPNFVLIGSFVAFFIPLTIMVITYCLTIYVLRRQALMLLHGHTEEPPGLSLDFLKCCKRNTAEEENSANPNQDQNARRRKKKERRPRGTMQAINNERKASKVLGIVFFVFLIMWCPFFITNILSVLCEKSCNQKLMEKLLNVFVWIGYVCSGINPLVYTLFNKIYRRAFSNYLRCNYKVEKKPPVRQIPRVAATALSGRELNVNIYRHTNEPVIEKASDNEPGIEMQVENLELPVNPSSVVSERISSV

[2] = system: ConA stimulated human lymphocytes; assay: Human mitogenic (ConA) stimulation, 3H-thymidine incorporation; assay type: cell-based; conditions: for activation / proliferative response: 5 μg/ml ConA, harvest 72 hours, drug titration (FIGS. 7A, 8A, 9A, 17, 33)
Method: Blood from healthy volunteers was drawn using venipuncture, using Vacutainer collection sets and heparinized collection vials. The blood was diluted 1:1 using HBSS to a total volume of 30 ml in 50 ml conical tubes (Fisher Scientific, Co., Pittsburgh, Pa.). […] Cells from the buffy coats were collected and the residual Histopaque was washed away using repeated centrifugations in HBSS. After washes, cells were resuspended at 5 million cells per ml in RPMI, supplemented with 2% FBS. To remove adherent cells, the suspension was plated onto a 6 well flat-bottom plate (Corning Costar), 3 ml/well, and incubated for 2 hours at 37° C., 5% CO2. Non-adherent cells were harvested after this incubation, were counted and resuspended in RPMI supplemented with 10% human serum (Sigma).
All drugs were pre-plated before the cell suspension was added onto each well of a 96-well round-bottom plate. All experimental conditions were assayed in at least triplicate. Cells suspended in RPMI supplemented with 10% human serum were plated at 100,000 cells per well to a final volume of 200 μl. […] Control samples received no ConA stimulation. The plates were incubated at 37° C. and 5% CO2.

[3] = system: Chronic Lymphocytic Leukemia tumor cells; assay: Ex planted bone marrow aspirates from a CLL patient; assay type: cell-based, human
[4] = In vivo screen for sedation / CNS effects after i.v. injection; design: species or system BALB/c mice
Method: Both QSS5 and QSS6 were assayed in vivo for the immediate ‘sleep’ effect.

RPMI 8226 cells [5] = assay: DNA fragmentation (internucleosomal laddering); assay type: cell-based, human; conditions: RPMI 8226 cells (FIGS. 26, 35)
Method: Cells (8×10^5) were washed with ice-cold PBS following experimental treatments and pelleted by centrifugation (500×g, 5 min). Cell pellets were incubated for 5 minutes on ice in lysis buffer (1% IGEPAL-CA630, 20 mM EDTA, 50 mM Tris-HCL, pH 7.5). Lysates were centrifuged at about 1,600×g for 5 minutes. 501 μL of lysis buffer was added to the supernatant. The extract was brought to 1% SDS and treated for 2 hours with 5 μg/μL Rnase A (57° C.) followed by treatment with 2.5 μg/μL proteinase K for 2 hours (37° C.). After digestion of RNA and protein, half volume of 10 M ammonium acetate was added and the DNA was precipitated using 2.5 volumes of ethanol, washed in 70% ethanol, air-dried, and dissolved in TE buffer. DNA fragments were separated by electrophoresis in 1.5% agarose gels using a protocol adapted from Siegel et al. (1998, Proc. Natl. Acad. Sci. USA 95:162-166).

cells = assay: Cell morphology change on inhibition of serotonergic signalling; assay type: cell-based; conditions: after 24 hours of treatment (FIG. 30)
Method: Briefly, cells were incubated with a 5-HTR antagonist (e.g., a selective type 1B inhibitor SD 216641) and the effects of treatment were assessed after 24 hours. […] For instance, detection of cell changes can be assessed using optical instruments (electron and light microscopy, as well as fluorescence activated cell sorting, and the like), or any other device that assesses and detects changes in cell size, density, morphology, and the like. Such devices are well known in the art and are not recounted here.

AKT = assay: Western blot of phospho-(ser473)-AKT; assay type: cell-based, human; conditions: RPMI-8226 cells, 0, 6.25, 12.5, 25 μM for 3 hours (FIG. 37)
Method: 5×10^6 cells RPMI-8226 cells were treated with 0, 6.25, 12.5, and 25 μM SB216641 for 3 hours. Cells were lysed in lysis buffer (1% IGEPAL CA-635, 150 mM NaCl, 20 mM Tris-Cl pH 7.4, 1 mM PMSF, 1 mM EGTA, 1 mM NaF, 1 μg/mL aprotinin, 10 μg/mL leupeptin, 1 mM Na2OVa, 5 mM BGP) on ice for 15 minutes followed by centrifugation for 10 min to clear the lysate of membrane fragment. Supernatants were collected and protein concentrations determined with the BioRad Detergent Compatible Kit (Hercules, Calif.).
One-hundred micrograms of protein were loaded into each lane and separated through a 4% SDS-PAGE stacking gel and a 12% SDS-PAGE resolving gel. Proteins were electro-transferred to a 0.2 μm nitrocellulose membrane in transfer buffer (25 mM Tris, 192 mM glycine, 20% methanol, 0.1% SDS). Membranes were immuno-blotted with an anti-phosphoAkt antibody (New England Biolabs, Beverly, Mass.) to the serine-473 phosphorylation residue required for AKT activation and any antibody bound was visualized using an enhanced chemiluminescent system.

RPMI-8226 cells = assay: Cytospin histochemistry (H&E, bis-benzamide) for chromatin; assay type: cell-based, human; conditions: 9 hour treatments; 50 μM SB compounds, 2 μM camptothecin (FIGS. 28, 29)
Method: 2.0×10^5 RPMI-8226 cells were cultured, in 6-well culture plates, in the presence of the indicated drug concentrations, in a total of 5 mL RPMI-1640 supplemented with 10% FBS. Each well was harvested in its entirety and divided into two identical samples for cytospins.
1.0×10^5 RPMI-8226 cells from each treatment group were loaded into Cyto-funnels and centrifuged at 500 rpm for 4 minutes with medium acceleration. Slides were then fixed through graded methanol in PBS (100%, 5 minutes; 80%, 5 minutes; 50%, 5 minutes), washed for 5 minutes in PBS and stored in PBS at 4° C. until stained.
Cytospun slides were stained with Hematoxylin and Eosin, followed by the nuclear stain, bis-benzamide, rinsed and mounted according to standard staining protocols. Slides were visualized under both brightfield and fluorescent light to generate matched images of the same slide field (see, e.g., FIGS. 28 and 29).

[6] = system: allogeneic stimulation of human lymphocytes; assay: Human mixed lymphocyte reaction (allogeneic stimulation), 3H-thymidine; assay type: cell-based
Description: Blood from two healthy, non-related, donors was taken as described above. Peripheral blood mononuclear cells were isolated as described previously elsewhere. The adherent cells were separated from the suspension cells as described previously for both donors. Suspension cells from both donors (donors A and B) were used as responders. The remaining adherent cells from each of the donors were used as stimulators against a different donor (suspension A against adherent B and adherent A against suspension B). The stimulator cells were irradiated at 35 Gy. Drugs were pre-plated onto 96 well, U-bottom plates in triplicate. 200,000 “stimulator” cells in RPMI supplemented with 10% human serum were then plated in each well. 200,000 “responder” cells in the same medium were then plated over stimulators to a final volume of 200 μl/well. Background controls received either no stimulator cells, or no responder cells. The plates were incubated at 37° C. and 5% CO2. 1 μCi of tritiated thymidine was added to each well after 4.5 days, and the plates were harvested 12 hours later.

[7] = system: RPMI 8226 multiple myeloma cells; assay: RPMI 8226 cell viability and proliferation (trypan blue, MTT, 3H-thymidine); assay type: cell-based, human; conditions: 3H-thymidine uptake, drug titration (FIGS. 19-25, 31, 32)
Method: The human plasmacytoma (multiple myeloma) cell line, RPMI 8226 (American Type Culture Collection, Manassas, Va.), was cultured in RPMI 1640 supplemented with 10 mM HEPES, 1 mM sodium pyruvate, 4.5 g/L glucose, 1.5 g/L bicarbonate and 20% FBS (non-heat inactivated).
Cell proliferation was assayed by three methods—Trypan Blue Exclusion was used to quantify the number of viable cells in culture; 3-(4,5-dimethylthiazol-2-yl)-2,5-diphenyl tetrazolium bromide (MTT) reduction was used to assay mitochondrial activity (and thus cell viability); and ^3H-Thymidine uptake was employed to assay for active DNA synthesis.
Three separate indicators of cell proliferation were employed to study the effects of 5-HT receptor modulating agents on the human multiple myeloma cell line, RPMI 8226. Cells were plated at 4 separate densities and were treated with LY53587 (an antagonist of the 5-HT2A/2B/2C receptors) at a range of concentrations. The exclusion of trypan blue dye was used as an indicator of cell viability. Cell numbers were then plotted against the concentration of drug added.
MTT reduction was also used as an indicator of cell viability (more specifically, mitochondrial activity). Absorbance values at OD570 were then plotted against drug concentration. Finally, DNA synthesis was assayed, through the measurement of ^3H-thymidine uptake, and counts per minute (CPMs) were plotted against drug concentration.
Culturing and administration of drugs and ^3H-thymidine were performed as described elsewhere herein.

Row | Compound | apoptosis, annexin-V positive / PI negative cells (RPMI 8226 cells [1]) | inverse agonism / inhibition of 5-HT 2C receptor (human 5HT2C-INI receptor) | activation / proliferative response [2] | in vitro activation / proliferation of (helper) T cells ([2]; in vitro) | tumor cell burden [3] | duration of sleep ([4]; 15 mg/kg i.v. tail vein, BALB/c mice) | sedation / abnormal behavior ([4]; 15 mg/kg i.v. tail vein, BALB/c mice, observed over 72 hour period) | sedative effect ([4]; intravenous injection in an animal) | DNA laddering (RPMI 8226 cells [5]) | change in cell morphology (cells) | phospho-(ser473)-AKT level (AKT) | phospho-(ser473)-AKT level (AKT; listed as SB216641) | chromatin condensation / fragmentation (apoptosis) (RPMI-8226 cells) | IC50 ([2]; ConA stimulation, read-out: apparent IC50) [nM] | activation / proliferative response ([6]; allogeneic stimulation, harvest 120 hours, drug titration (FIGS. 7B, 8B, 9B)) | IC50 ([6]; allogeneic stimuli (weaker signal strength), read-out: apparent IC50) [nM] | growth / proliferation of RPMI 8226 cells [7]
1 | OCCN1CCN(CCCN2c3ccccc3Sc3ccc(C(F)(F)F)cc32)CC1 [Fluphenazine] | significantly greater degree of apoptosis than any of the control cell populations | potent inverse agonist; also recorded: effective inhibitor (inverse agonist) | dramatic and dose-dependent decrease in proliferation | inhibits T cell responses | reduces the tumor cell burden | approximately 10 hours | instantly sedated | strong sedative, inducing sleep in an animal before the needle is withdrawn from the vein | increase in DNA laddering over control cell extracts |  |  |  |  |  |  |  | 
2 | COc1ccc(NC(=O)c2ccc(-c3ccc(-c4noc(C)n4)cc3C)cc2)cc1OCCN(C)C [SB 216641] |  |  | complete inhibition of the activation response |  |  |  |  |  | increase in DNA laddering over control cell extracts | an increase in cell size | down-regulates the activity of AKT | dose dependant decrease in phosphor-(ser473)-AKT | Extensive chromatin condensation and nuclear fragmentation; also recorded: induced programmed cell death comparable to that induced by the topoisomerase I inhibitor, camptothecin | ~200 | complete inhibition of the activation response | ~50 | completely inhibited the growth of the cancer cells
